In US4190642A, “Ocular therapeutic system for dispensing a medication formulation” (Alza Corporation, priority 1979, dated 1980) one finds solubility and osmotic pressure data, which are given here for four compounds.

One series in a line: solubility in water. The text has this:
System 10 houses in depot 14 from about 1 to 40 weight percent of pilocarpine solute and from 1 to 25 weight percent of epinephrine solute, with the remaining weight percent of system 10 polymer 12. […] Generally, the pilocarpine solute and the epinephrine solute will have a particle size of about 0.1 to 100 microns, and a presently preferred particle size of about 0.5 to 20 microns. The osmotic delivery device consisting of sole drug solute of a specific particle size dispersed in a polymer is the invention of Michaels and Guillod as disclosed and claimed in copending U.S. Patent Application Ser. No. 855,605, filed on Nov. 29, 1977. This application and the copending application are both assigned to the Alza Corporation of Palo Alto, California.
Next, the contents of the bowl are removed, cut into 3 mm ×3 mm pieces with a multi-blade strip die and the strips fed to the hopper of an extruder. The pieces have a residence time of 5 minutes in the extruder with the screw of the extruder rotating at 20 rpm. A film is extruded through a 12 mil opening at the end of the extruder and punched into 13.5×5.8 mm inserts.

The nature of series [1]: osmotic pressure (vapor pressure osmometer). Type of series: physicochemical. The text has this: System 10 houses in depot 14 from about 1 to 40 weight percent of pilocarpine solute and from 1 to 25 weight percent of epinephrine solute, with the remaining weight percent of system 10 polymer 12. […] Generally, the pilocarpine solute and the epinephrine solute will have a particle size of about 0.1 to 100 microns, and a presently preferred particle size of about 0.5 to 20 microns. […] This application and the copending application are both assigned to the Alza Corporation of Palo Alto, California.
The osmotic pressure, ATM, of the above solutes can be measured in a commercially available osmometer that measures the vapor pressure difference between pure water and the solution containing a solute to be analyzed, and according to standard thermodynamic principles, the vapor pressure ratio is converted into osmotic pressure difference.

Counter-ions that a name gives are not always drawn. Like-named read-outs stand apart in the source and are kept apart here.

Consider `CNC[C@H](O)c1ccc(O)c(O)c1` [epinephrine bitartrate], for which the solubility (commonly the dissolved amount per volume that the medium holds) in “solubility in water” (water, solubility in water, 37° C.) is 670 mg/mL; in the series “solubility in water” (water, solubility, water solution), 670 mg/mL. Also, the figures for the osmotic pressure in series [1] and in series [1] (Example 5) were 78.5 atmospheres and 78.5 ATM, respectively.

As to `CNC[C@H](O)c1ccc(O)c(O)c1` [epinephrine hydrochloride], in the series “solubility in water” (water solution, hydrochloride), the solubility is 80 grams in 100 ml of water solution. Besides, the osmotic pressure in series [1] (hydrochloride) stood at 185 atmospheres.

For the compound `CC[C@@H]1C(=O)OC[C@@H]1Cc1cncn1C` [pilocarpine hydrochloride], in the series “solubility in water” (water), the solubility is on record as 80 grams in 100 ml of water solution. In series [1] (hydrochloride), this compound displayed an osmotic pressure of 300 atmospheres.

For the compound `CC[C@@H]1C(=O)OC[C@@H]1Cc1cncn1C` [pilocarpine nitrate], the solubility is 27 grams in 100 ml of water solution in “solubility in water” (water) and 270 mg/mL in “solubility in water” (water, solubility in water). Moreover, the osmotic pressure in series [1] was 37 atmospheres; in series [1] (Example 5), 37 ATM.
